Measurements: ChEMBL document CHEMBL6109145, “Indolizine Derivatives Inhibit TRPM2 and Protect against Ischemic Brain Injury with an Extended Treatment Window” (J Med Chem, 2025)

Assays:
[1] = target: Transient receptor potential cation channel subfamily M member 2 (Homo sapiens, UniProt O94759); experiment: Inhibition of TRPM2 channel (unknown origin) in doxycycline-inducible human HEK-293T cells assessed as inhibition of ADPR activated current by measuring inhibition rate at +80 mV to -80 mV at 1 uM by whole-cell patch clamp electrophysiology relative to control; format: cell-based
Mus musculus [2] = experiment: Neuroprotective effect against transient middle cerebral artery occlusion (tMCAO) mouse model assessed as infarct volume in TTC-stained brain slices at 3 mg/kg, iv administered 3 hrs after reperfusion (reference value: 59 +/- 2.4%); format: functional
Mus musculus [3] = experiment: Neuroprotective effect against transient middle cerebral artery occlusion (tMCAO) mouse model assessed as infarct volume in TTC-stained brain slices at 1 mg/kg, iv administered 24 hrs after reperfusion (reference value: 4.3 +/- 0.3%); format: functional
Mus musculus [4] = experiment: Neuroprotective effect against transient middle cerebral artery occlusion (tMCAO) mouse model assessed as infarct volume in TTC-stained brain slices at 3 mg/kg, iv administered 24 hrs after reperfusion (reference value: 4.3 +/- 0.3%); format: functional
Mus musculus [5] = experiment: Neuroprotective effect against transient middle cerebral artery occlusion (tMCAO) (60 mins ischemia/24 hrs reperfusion) mouse model assessed as infarct volume in TTC-stained brain slices at 3 mg/kg, iv once daily for 7 days (reference value: 39.6 +/- 1.3%); format: functional; conditions: 1 h
[6] = AUC (0 to infinity) in mouse at 100 mg/kg, IG administered single dose; format: ADME, organism-based; conditions: in vivo, po
[7] = AUC (0 to t) in mouse at 1 mg/kg, iv administered single dose; format: ADME, organism-based; conditions: in vivo
Mus musculus [8] = experiment: Neuroprotective effect against transient middle cerebral artery occlusion (tMCAO) mouse model assessed as infarct volume in TTC-stained brain slices at 0.3 mg/kg, iv administered 3 hrs after reperfusion (reference value: 59 +/- 2.4%); format: functional
[9] = AUC (0 to infinitive) in mouse at 20 mg/kg, IG administered single dose; format: ADME, organism-based; conditions: in vivo, po
[10] = Half life in mouse at 1 mg/kg, iv administered single dose; format: ADME, organism-based; conditions: in vivo
[11] = MRT in mouse at 1 mg/kg, iv administered single dose; format: ADME, organism-based; conditions: in vivo
[12] = Half life in mouse at 100 mg/kg, IG administered single dose; format: ADME, organism-based; conditions: in vivo, po
[13] = Oral bioavailability in mouse at 20 mg/kg, IG administered single dose; format: ADME, organism-based; conditions: in vivo
[14] = Tmax in mouse at 100 mg/kg, IG administered single dose; format: ADME, organism-based; conditions: in vivo, po
[15] = AUC (0 to t) in mouse at 20 mg/kg, IG administered single dose; format: ADME, organism-based; conditions: in vivo, po
[16] = Oral bioavailability in mouse at 100 mg/kg, IG administered single dose; format: ADME, organism-based; conditions: in vivo
[17] = Clearance in mouse at 1 mg/kg, iv administered single dose; format: ADME, organism-based; conditions: in vivo
[18] = Cmax in mouse at 20 mg/kg, IG administered single dose; format: ADME, organism-based; conditions: in vivo, po
[19] = Half life in mouse at 20 mg/kg, IG administered single dose; format: ADME, organism-based; conditions: in vivo, po
Mus musculus [20] = experiment: Neuroprotective effect against transient middle cerebral artery occlusion (tMCAO) mouse model assessed as infarct volume in TTC-stained brain slices at 1 mg/kg, iv administered 3 hrs after reperfusion (reference value: 59 +/- 2.4%); format: functional
[21] = Tmax in mouse at 1 mg/kg, iv administered single dose; format: ADME, organism-based; conditions: in vivo
[22] = Cmax in mouse at 100 mg/kg, IG administered single dose; format: ADME, organism-based; conditions: in vivo, po
[23] = Cmax in mouse at 1 mg/kg, iv administered single dose; format: ADME, organism-based; conditions: in vivo
[24] = MRT in mouse at 100 mg/kg, IG administered single dose; format: ADME, organism-based; conditions: in vivo, po
[25] = Tmax in mouse at 20 mg/kg, IG administered single dose; format: ADME, organism-based; conditions: in vivo, po
[26] = MRT in mouse at 20 mg/kg, IG administered single dose; format: ADME, organism-based; conditions: in vivo, po
[27] = AUC (0 to infinitive) in mouse at 1 mg/kg, iv administered single dose; format: ADME, organism-based; conditions: in vivo
[28] = AUC (0 to t) in mouse at 100 mg/kg, IG administered single dose; format: ADME, organism-based; conditions: in vivo, po

Chain of Transient receptor potential cation channel subfamily M member 2 (O94759 whole entry, the tested form may be a part): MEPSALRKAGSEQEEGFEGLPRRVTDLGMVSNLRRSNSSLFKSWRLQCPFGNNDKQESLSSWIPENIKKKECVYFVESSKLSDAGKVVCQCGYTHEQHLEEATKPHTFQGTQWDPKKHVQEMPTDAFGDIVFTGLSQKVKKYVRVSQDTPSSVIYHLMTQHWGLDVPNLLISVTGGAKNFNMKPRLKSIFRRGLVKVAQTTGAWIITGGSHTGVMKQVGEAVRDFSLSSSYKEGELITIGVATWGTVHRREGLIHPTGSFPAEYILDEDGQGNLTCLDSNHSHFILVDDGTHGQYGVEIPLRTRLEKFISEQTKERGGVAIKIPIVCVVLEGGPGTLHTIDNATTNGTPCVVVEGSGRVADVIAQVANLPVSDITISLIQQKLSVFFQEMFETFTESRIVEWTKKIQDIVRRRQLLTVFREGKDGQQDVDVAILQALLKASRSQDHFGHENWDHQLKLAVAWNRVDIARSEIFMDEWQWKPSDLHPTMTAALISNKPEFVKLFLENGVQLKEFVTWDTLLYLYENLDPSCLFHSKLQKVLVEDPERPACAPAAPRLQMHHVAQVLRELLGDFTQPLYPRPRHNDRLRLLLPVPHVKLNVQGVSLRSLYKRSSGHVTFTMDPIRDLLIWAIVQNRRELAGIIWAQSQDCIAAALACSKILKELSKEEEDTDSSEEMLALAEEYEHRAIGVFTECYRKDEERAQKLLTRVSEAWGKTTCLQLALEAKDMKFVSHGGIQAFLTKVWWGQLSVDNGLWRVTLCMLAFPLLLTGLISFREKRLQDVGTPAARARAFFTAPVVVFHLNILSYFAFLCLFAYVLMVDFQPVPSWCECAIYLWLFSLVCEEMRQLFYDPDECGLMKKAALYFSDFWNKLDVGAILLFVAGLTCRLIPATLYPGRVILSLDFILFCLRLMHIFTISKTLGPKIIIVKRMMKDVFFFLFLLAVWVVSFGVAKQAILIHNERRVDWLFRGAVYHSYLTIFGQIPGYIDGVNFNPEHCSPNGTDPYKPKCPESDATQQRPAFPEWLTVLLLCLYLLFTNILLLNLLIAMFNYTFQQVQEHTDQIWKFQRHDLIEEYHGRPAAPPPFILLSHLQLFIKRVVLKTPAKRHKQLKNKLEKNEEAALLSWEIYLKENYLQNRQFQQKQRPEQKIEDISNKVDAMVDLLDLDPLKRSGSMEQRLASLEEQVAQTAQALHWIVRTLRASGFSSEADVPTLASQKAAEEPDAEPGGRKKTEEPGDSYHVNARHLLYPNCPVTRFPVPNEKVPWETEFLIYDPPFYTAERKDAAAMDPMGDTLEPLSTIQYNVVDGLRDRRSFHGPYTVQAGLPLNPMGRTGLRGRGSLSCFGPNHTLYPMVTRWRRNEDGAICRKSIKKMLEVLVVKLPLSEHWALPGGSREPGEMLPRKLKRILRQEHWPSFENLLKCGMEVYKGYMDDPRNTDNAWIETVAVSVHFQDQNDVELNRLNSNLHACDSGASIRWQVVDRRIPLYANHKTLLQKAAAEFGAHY

`O=C(c1ccccc1)c1cc(C(=O)N2CCCCC2)cc2cccn12` showed an IC50 [1] of 2800 nM.
`O=C(c1ccccc1)c1cc(C(=O)N2CCOCC2)cc2cccn12` showed an IC50 [1] of 2890 nM.
Work on `CC1=NN(c2ccccc2)C(=O)C1` [EDARAVONE] yielded an Activity (Mus musculus [2]) of 40.6%, an Activity (Mus musculus [3]) of 2.8% and an Activity (Mus musculus [4]) of 3%. It also gave an Activity (Mus musculus [5]) of 38.9%.
Compound `O=C(c1ccccc1)c1cc(C(=O)N2CCCC2)cc2cccn12` has an IC50 [1] of 3080 nM.
For `CCN(CC)C(=O)c1cc(C(=O)c2ccccc2)n2cccc2c1`, the AUC [6] was 11740 ng·h/mL, the AUC(0-t) [7] was 220 ng·h/mL and the Activity (Mus musculus [8]) was 51.5%. The AUC [9] was 2410 ng·h/mL, the Activity (Mus musculus [2]) was 30.7% and the half-life [10] was 0.86 h. It also gave an MRT [11] of 1.24 h, a half-life [12] of 2.83 h and a bioavailability [13] of 50%. The Tmax [14] was 1.1 h, the AUC(0-t) [15] was 2200 ng·h/mL and the bioavailability [16] was 48.2%. The clearance [17] was 75.8 mL/min/kg, the Cmax [18] was 330 ng/mL and the half-life [19] was 2.62 h. It also gave an Activity (Mus musculus [4]) of 2.3%, an Activity (Mus musculus [20]) of 39.4% and an Activity (Mus musculus [5]) of 23.4%. It also gave an IC50 [1] of 2290 nM, a Tmax [21] of 5.4 min and a Cmax [22] of 1520 ng/mL. For the same compound, the Cmax [23] was 260 ng/mL, the MRT [24] was 3.16 h and the Tmax [25] was 0.83 h. For the same compound, the MRT [26] was 2.65 h, the AUC(0-inf) [27] was 220 ng·h/mL and the AUC(0-t) [28] was 10600 ng·h/mL.
